In US11617754B2, “Methods of treating heart failure with preserved ejection fraction” (Poxel SA, priority 2017, dated 2023):

Tests used:
Assay type in all cases: in vivo, rat
Zucker fa/fa rats [1] = assay: Echocardiography, cardiac output in Zucker fa/fa rats; conditions: 150 mg/kg bid, 90 days, vs untreated Zucker fa/fa
Experimental: (§1) Experiments were performed on 12-week-old Male Zucker fa/fa rats or lean control rats purchased from Ch. River (US).
(§2) Animals were kept 2 per cage in standard laboratory conditions, and drugs were administered by gavage (at 9 am and at 6 pm) at the dose of 150 mg/kg bid and administered for 9 or 90 days. Imeglimin's effects on cardiac dysfunction were assessed. • First experiment protocol:
(§3) The Zucker fa/fa animals were randomized on their body weight in two groups and three groups were then constituted: • Lean rats (Treated with vehicle n=12) • Control Zucker fa/fa rats (Treated with vehicle n=18) • Imeglimin treated Zucker fa/fa rats at the dose of 150 mg/kg bid (n=18)
(§4) After a short-term treatment (9 days), cardiac function (echocardiography and MRI) and cardiac hemodynamics were assessed (1 h after the last treatment) on all rats. • Second experiment protocol: […]
(§5) After a long-term treatment (90 days), cardiac function (echocardiography and MRI) and cardiac hemodynamics were assessed (1 h after the last treatment) on all rats.
Studies were performed on rats after 9 and 90 days of treatment. […] LV diameters were measured by the American Society of Echocardiography leading-edge method from at least 3 consecutive cardiac cycles. […]

[2] = test system: septal coronary artery of Zucker fa/fa rats; assay: Coronary endothelial function: acetylcholine-induced relaxation of septal coronary artery from treated Zucker fa/fa rats; conditions: 150 mg/kg bid, administration for 9 and 90 days, serotonin-precontracted segments
Experimental: as §1, §2
Coronary endothelial function was assessed after 9 or 90 days of treatment, as described previously (Fang Y H et al, Journal of Cardiovascular Pharmacology, 2012, 59: 260-267; Mulder et al., Eur Heart J., 2008, 29:2171-2179). In brief, at the end of the left ventricular function assessment, the heart was removed and immediately placed in cold oxygenated Krebs buffer. A 1.5- to 2-mm-long segment of arteries were carefully dissected and mounted in a small vessel myograph. Normalization procedure was performed after an equilibration period. Segments with an internal diameter<170 μm was excluded to avoid mechanical endothelial injury and unspecific dysfunction. Concentration-response curves to acetylcholine (10^−8 to 3×10^−5 mol/L) were performed in serotonin-precontracted segments (10^−5 mol/L).

Zucker fa/fa rats [3] = assay: Cardiac hemodynamics (left ventricular pressure-volume curves) in Zucker fa/fa rats
Experimental: as §1, §2, §3
After a short-term treatment (9 days), cardiac function (echocardiography and MRI) and cardiac hemodynamics were assessed (1 h after the last treatment) on all rats. • Second experiment protocol:
(§6) The Zucker fa/fa animals were randomized on their body weight in two groups and three groups were then constituted: • Lean rats (Treated with vehicle n=18) • Control Zucker fa/fa rats (Treated with vehicle n=24) • Imeglimin treated Zucker fa/fa rats at the dose of 150 mg/kg bid (n=24)
as §5
The imeglimin suspension was prepared at the concentrations used in the study (150 mg/kg) and homogenized in 10 mL of the Methylcellulose solution. The drug suspension was prepared on the day of administration.
Left ventricle function was assessed using left pressure volume curves after 9 or 90 days of treatment, as previously described (Fang Y et al, J Mol Cell Cardiol., 2011, 51:168-176; Fang Y H et al, Journal of Cardiovascular Pharmacology, 2012, 59: 260-267). In brief, a 2F miniaturized combined conductance catheter-micromanometer (model SPR-819, Millar Instruments) connected to a pressure-conductance unit (MPCU-200, Millar) was advanced retrograde via the carotid artery into the left ventricle. This catheter has a micro-manometer surrounded by 4 platinum electrodes; the two outermost electrodes generate a current of 0.1 mA at a frequency of 20 kHz, which is sensed by the two innermost electrodes. Pressure-Volume (PV) loops were recorded at baseline and during loading by gently occluding the abdominal aorta with a cotton swab. Data were stored and analysed by using Millar conductance data acquisition and analysis software. Finally, the following parameters were measured/calculated from the pressure-volume curves: • Left ventricular end-diastolic pressure; • Left ventricular end-systolic pressure; • Left ventricular relaxation constant Tau; • Left ventricular end-diastolic pressure-volume relation; and • Left ventricular end-systolic pressure-volume relation. Coronary Endothelial Function

Zucker fa/fa rats [4] = assay: Cardiac histology: LV collagen density (Sirius red) in Zucker fa/fa rats; conditions: 150 mg/kg bid, D90, mean ± SEM
Experimental: as §1, §2, §6
At the end of the treatment period, the heart was taken out. After fixation, the left ventricle was cut in 3 sections of identical thickness. The sections of the heart were dehydrated and embedded in paraffin. 3 μm-thick sections were cut from each block and mounted on glass slides. Sections were stained with Sirius red for the determination of collagen. Slides were enlarged 500 times using a microscope connected to an image analysis system, as previously described (Mulder et al., J. Am. Coll. Cardiol., 1997). Collagen density was calculated in the left ventricle as the surface occupied by collagen divided by the surface of the image.

Zucker fa/fa rats [5] = assay: Left ventricular oxidative stress: ROS production in LV homogenates by EPR, Zucker fa/fa rats; conditions: 150 mg/kg bid
Experimental: as §1, §2
Left ventricular reactive oxygen species production level were evaluated in left ventricular homogenates (obtained after 9 or 90 days of treatment) by electron paramagnetic resonance spectroscopy (EPR) using the spin probe 1-hydroxy-3-methoxycarbonyl-2,2,5,5-tetramethylpyrrolidine (CMH, Noxygen, Germany), as previously described (Mulder P, Eur Heart J. 2008; 29:2171-2179). Stock solution of CMH (50 mM) were prepared in Krebs-HEPES buffer (0.1 M NaCl, 5 mM KCl, 2.5 mM CaCl2, 1.2 mM MgSO4, 25 mM NaHCO3, 1 mM KH2PO4, 5.6 mM D(+)-Glucose, 20 mM Na-HEPES, pH 7.4) containing 25 μM deferoxamine and 5 μM diethyldithiocarbamate. […] The oxidation of CMH into the stable 3-methoxycarbonyl-proxyl (CM•), driven mainly by superoxide and peroxynitrite reactions, was recorded using a MiniScope MS-200 X-band spectrometer (Magnettech, Germany). […] Intensity of the spectra was measured from the height of the central line. CM• production was quantified using CP° standard and expressed in μmol of CM• per mg of total proteins.

Zucker fa/fa rats [6] = assay: Myocardial perfusion by MRI (arterial spin labeling) in Zucker fa/fa rats; conditions: 150 mg/kg bid, vs untreated Zucker fa/fa
Experimental: as §1, §2, §3, §4, §5
The ECG signal was monitored by placing two subcutaneous electrodes on each side of the rat at chest level. […] Upon subtraction of an image acquired without spin labelling, the background signal from static spins is removed and the difference image can be used to quantify perfusion. […]

[7] = 150 mg/kg bid, 90 days, vs untreated Zucker fa/fa

## CC1N=C(N)NC(N(C)C)=N1 (single isomer, unassigned; (+)) [Imeglimin, (+)-2-amino-3,6-dihydro-4-dimethylamino-6-methyl-1,3,5-triazine]
Zucker fa/fa rats [1]
  cardiac output (FIG. 2A): increased
[2]
  acetylcholine-induced relaxation of septal coronary artery (FIG. 3): prevented the impairment
Zucker fa/fa rats [3]; 150 mg/kg bid by gavage, 9 days of treatment
  reduction of the left ventricular end-diastolic pressure-volume relation: about 26%
Zucker fa/fa rats [3]; 150 mg/kg bid by gavage, 90 days of treatment
  reduction of the left ventricular end-diastolic pressure-volume relation: ~58%
Zucker fa/fa rats [3]; 150 mg/kg bid, 9 days, vs untreated Zucker fa/fa
  reduction of the left ventricular end-diastolic pressure-volume relation: already significant
Zucker fa/fa rats [3]; 150 mg/kg bid, 90 days of treatment
  LV compliance increase: about 50%
Zucker fa/fa rats [3]; [7]
  LV end-diastolic pressure (FIG. 1A): significant reduction
  LV end-diastolic pressure volume relation (FIG. 1C): significant reduction
  LV relaxation constant Tau (FIG. 1B): significant reduction
Zucker fa/fa rats [4]
  LV collagen density: 2.52 ± 0.20 %
Zucker fa/fa rats [5]; D9, mean ± SEM
  LV ROS production: 27.61 ± 1.29 AU · μg^−1 · h^−1
Zucker fa/fa rats [5]; D90, mean ± SEM
  LV ROS production: 34.02 ± 1.49 AU · μg^−1 · h^−1
Zucker fa/fa rats [6]; 9 days
  increase in the myocardial perfusion: already significant
Zucker fa/fa rats [6]; 90 days
  myocardial perfusion (FIG. 2B): increased
